Among the data in ChEMBL document CHEMBL3792367, “Synthesis and molecular modeling of antimicrobial active fluoroquinolone-pyrazine conjugates with amino acid linkers” (2016) are MIC values, retold here.

Converted amounts (≈) assume the structure as drawn.

One assay relates to Staphylococcus aureus. The assay is described as follows: Antibacterial activity against Staphylococcus aureus ATCC 25923 after 18 hrs by agar dilution method. The format is functional. As to conditions: ATCC 25923, 18 h. A general note: Agar dilution tests growth on a series of plates holding different concentrations.
For another assay, the system named is Streptococcus pyogenes. The assay is described as follows: Antibacterial activity against Streptococcus pyogenes ATCC 19615 after 18 hrs by agar dilution method. The format is functional. The following applies: ATCC 19615, 18 h.
A further assay deals with Salmonella typhi. The assay is described as follows: Antibacterial activity against Salmonella typhi ATCC 19430 after 18 hrs by agar dilution method. It counts as functional, Salmonella enterica subsp. enterica serovar Typhi. The following applies: Salmonella enterica, ATCC 19430, 18 h.
For the next assay, the system named is Pseudomonas aeruginosa. The assay is described as follows: Antibacterial activity against Pseudomonas aeruginosa ATCC 27853 after 18 hrs by agar dilution method. The format is functional. As to conditions: ATCC 27853, 18 h.

For the molecule `O=C(NCCCC(=O)N1CCN(c2cc3c(cc2F)c(=O)c(C(=O)O)cn3C2CC2)CC1)c1cnccn1`, the MIC worked out at 0.0746 µM (≈ 0.039 µg/mL) with Staphylococcus aureus, 149 µM (≈ 78 µg/mL) in the assay on Streptococcus pyogenes, 2390 µM (≈ 1250 µg/mL) against Salmonella typhi and 597 µM (≈ 312 µg/mL) in the assay with Pseudomonas aeruginosa.
In the same order, the values of `C[C@H](NC(=O)c1cnccn1)C(=O)N1CCN(c2cc3c(cc2F)c(=O)c(C(=O)O)cn3C2CC2)CC1` are 2.46 µM (≈ 1.25 µg/mL), 2460 µM (≈ 1250 µg/mL), 2460 µM (≈ 1250 µg/mL) and 2460 µM (≈ 1250 µg/mL).
In the same order, the values of `CCn1cc(C(=O)O)c(=O)c2cc(F)c(N3CCN(C(=O)CNC(=O)c4cnccn4)CC3)cc21` are 0.648 µM (≈ 0.313 µg/mL), 1300 µM (≈ 625 µg/mL), 1300 µM (≈ 625 µg/mL) and 2490 µM (≈ 1200 µg/mL).
For `CCn1cc(C(=O)O)c(=O)c2cc(F)c(N3CCN(C(=O)CCNC(=O)c4cnccn4)CC3)cc21`, in that order: 0.628 µM (≈ 0.312 µg/mL), 1260 µM (≈ 625 µg/mL), 2520 µM (≈ 1250 µg/mL) and 2520 µM (≈ 1250 µg/mL).
As to `CCn1cc(C(=O)O)c(=O)c2cc(F)c(N3CCN(C(=O)CCCNC(=O)c4cnccn4)CC3)cc21`, the MIC came to 2.45 µM (≈ 1.25 µg/mL) with Staphylococcus aureus, 2450 µM (≈ 1250 µg/mL) with Streptococcus pyogenes, 76.4 µM (≈ 39 µg/mL) against Salmonella typhi and 2450 µM (≈ 1250 µg/mL) against Pseudomonas aeruginosa.
Regarding `CCn1cc(C(=O)O)c(=O)c2cc(F)c(N3CCN(C(=O)[C@H](C)NC(=O)c4cnccn4)CC3)cc21`, the minimal inhibitory concentration (MIC) against Staphylococcus aureus is 0.629 µM (≈ 0.312 µg/mL); against Streptococcus pyogenes, 1260 µM (≈ 625 µg/mL); in the assay with Salmonella typhi it was 2520 µM (≈ 1250 µg/mL); against Pseudomonas aeruginosa, 2520 µM (≈ 1250 µg/mL).
`O=C(NCC(=O)N1CCN(c2cc3c(cc2F)c(=O)c(C(=O)O)cn3C2CC2)CC1)c1cnccn1`: the MIC in the assay on Staphylococcus aureus was found to be 2.53 µM (≈ 1.25 µg/mL); with Streptococcus pyogenes, 2530 µM (≈ 1250 µg/mL); with Salmonella typhi, 2530 µM (≈ 1250 µg/mL); in the assay on Pseudomonas aeruginosa, 2530 µM (≈ 1250 µg/mL).
With `O=C(NCCC(=O)N1CCN(c2cc3c(cc2F)c(=O)c(C(=O)O)cn3C2CC2)CC1)c1cnccn1`, the MIC is 0.307 µM (≈ 0.156 µg/mL) with Staphylococcus aureus, 614 µM (≈ 312 µg/mL) with Streptococcus pyogenes, 2460 µM (≈ 1250 µg/mL) in the assay on Salmonella typhi and 2460 µM (≈ 1250 µg/mL) against Pseudomonas aeruginosa.
As to `O=C(O)c1cn(C2CC2)c2cc(N3CCNCC3)c(F)cc2c1=O` [CIPROFLOXACIN], the MIC came to 3.77 µM (≈ 1.25 µg/mL) against Staphylococcus aureus, 3770 µM (≈ 1250 µg/mL) against Streptococcus pyogenes, 7.2 µM (≈ 2.39 µg/mL) with Salmonella typhi and 14.5 µM (≈ 4.8 µg/mL) in the assay with Pseudomonas aeruginosa.
In the same order, the values of `CCn1cc(C(=O)O)c(=O)c2cc(F)c(N3CCNCC3)cc21` [NORFLOXACIN] are 3.91 µM (≈ 1.25 µg/mL), 1960 µM (≈ 625 µg/mL), 7.5 µM (≈ 2.4 µg/mL) and 15 µM (≈ 4.79 µg/mL).

The MIC is the lowest concentration that inhibits growth of the organism.
